Reference: US6649814B2, “Cytochrome P450 monooxygenases” (Syngenta Participations AG, priority 1997, dated 2003)

Key:
[1] = test system: microsomal system; conditions: the substance is the substrate, cited from earlier work; for Km: read-out: Km for p-hydroxymandelonitrile production
[2] = target: T1, cytochrome P450OX (Sorghum bicolor, UniProt O48958); assay: reconstitution of cytochrome P450OX activity in lipid micelles; format: biochemical; design: 10 μl of the cytochrome P450OX (approximately 0.4 pmol) solution; from tissue; host or cells: microsomes of etiolated Sorghum bicolor seedlings
T1 sequence (O48958 2-531): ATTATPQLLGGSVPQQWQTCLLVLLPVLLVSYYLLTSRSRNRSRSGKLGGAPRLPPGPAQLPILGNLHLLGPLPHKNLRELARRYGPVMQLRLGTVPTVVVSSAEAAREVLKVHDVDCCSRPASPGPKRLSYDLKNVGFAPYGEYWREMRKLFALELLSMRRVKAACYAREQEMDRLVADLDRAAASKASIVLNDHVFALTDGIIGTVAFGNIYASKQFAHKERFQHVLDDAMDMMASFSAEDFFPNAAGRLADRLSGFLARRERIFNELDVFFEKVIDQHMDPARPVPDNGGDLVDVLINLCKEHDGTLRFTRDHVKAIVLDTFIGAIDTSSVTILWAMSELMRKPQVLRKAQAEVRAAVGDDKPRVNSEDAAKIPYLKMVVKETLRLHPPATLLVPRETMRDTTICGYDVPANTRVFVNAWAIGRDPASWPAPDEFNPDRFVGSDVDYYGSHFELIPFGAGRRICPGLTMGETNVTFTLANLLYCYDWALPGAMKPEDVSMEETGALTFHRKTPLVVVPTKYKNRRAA
Text: (§1) Reconstitution of the enzyme activity of a microsomal cytochrome P450 is accomplished by inserting the cytochrome P450 enzyme and the corresponding NADPH cytochrome P450 oxidoreductase into lipid micelles. A mixture of lipids can be used but in the case of cytochrome P450OX, dilauroylphosphatidylcholine (DLPC) provides the best enzymatic activity. The number of correctly formed complexes of cytochrome P450OX and NADPH cytochrome P450 oxidoreductase are a rate limiting factor. Excess amounts of the oxidoreductase and concentrated enzyme solutions are utilized to ensure a sufficient number of active complexes.
(§2) A functionally reconstituted enzyme is obtained using the following components: […]
(§3) The complete reaction mixtures contain: 3 μl of isolated, recombinant P450TYR (6 pmol, heterologously expressed in E. coli and isolated as in Halkier et al, Arch. Biochem. Biophys. 322: 369-377, 1995), 10 μl of isolated and dialyzed P450OX (approximately 0.4 pmol), 5 μl of NADPH-P450 oxidoreductase (0.075 U), 1 μl of partially purified UDPG glucosyl transferase from Sorghum, 5 μl of DLPC (10 mg/ml in 50 mM Kpi (pH7)), 0.25 μl of [U-^14C]-tyrosine ([…], 443 mCi/mmol, Amersham), 3 μl of UDPG (33 mg/ml in 50 mM Kpi (pH7)), and 3 μl of castanospermin (2 mM in 50 mM Kpi (pH7)). […] The first set of reaction mixtures is analyzed using the ethyl acetate/toluene solvent as in example 4.5. […]

[3] = test system: glucosidase activity present in the UDPG glucosyltransferase extract; assay: inhibition of glucosidase activity in the in vitro dhurrin reconstitution; format: biochemical, Sorghum; conditions: 3 μl of 2 mM in 30 μl reaction mixture
Description: as §3, with “4.5. The second set of reaction mixtures is analyzed using a solvent system consisting of ethyl acetate/acetone/dichloromethane/methanol/water (20/15/6/5/4, v/v/v/v/v) in order to achieve separation of the hydrophilic product dhurrin from tyrosine and from the hydrophobic intermediates.” for “4.5.”
The combined use of isolated P450TYR and P450OX in reconstitution experiments with radiolabeled tyrosine as substrate results in the production of p-hydroxyphenylacetonitrile and p-hydroxybenzaldehyde. […] Due to the lability of p-hydroxymandelonitrile its conversion to dhurrin is experimentally detected as a disappearance of p-hydroxybenzaldehyde. […]

[4] = target: T2, P450OX (Sorghum bicolor, UniProt O48958); assay: substrate binding spectra of isolated P450OX; conditions: for substrate binding spectrum: upon substrate addition
T2 construct: from tissue; host or cells: microsomes of etiolated Sorghum bicolor seedlings
T2 sequence (O48958 1-531): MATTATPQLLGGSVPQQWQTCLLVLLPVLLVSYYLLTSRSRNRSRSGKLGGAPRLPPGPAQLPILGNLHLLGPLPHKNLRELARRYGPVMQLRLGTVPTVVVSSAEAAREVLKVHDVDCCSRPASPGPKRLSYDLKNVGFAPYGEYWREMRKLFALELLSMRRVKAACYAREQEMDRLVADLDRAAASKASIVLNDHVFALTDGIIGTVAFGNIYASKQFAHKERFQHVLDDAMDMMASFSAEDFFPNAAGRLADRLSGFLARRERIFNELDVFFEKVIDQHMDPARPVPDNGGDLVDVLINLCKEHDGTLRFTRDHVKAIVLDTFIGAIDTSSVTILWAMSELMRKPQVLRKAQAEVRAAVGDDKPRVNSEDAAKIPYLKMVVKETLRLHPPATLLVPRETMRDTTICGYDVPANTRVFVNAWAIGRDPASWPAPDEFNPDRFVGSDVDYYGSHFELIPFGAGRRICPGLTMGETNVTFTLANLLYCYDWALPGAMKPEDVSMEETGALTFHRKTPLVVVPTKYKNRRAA
Description: The identification of P450OX as a multifunctional enzyme converting p-hydroxyphenylacetaldoxime to p-hydroxymandelonitrile with p-hydroxyphenylacetonitrile as an intermediate stimulated us to investigate the substrate binding ability of P450OX. […] The amplitude increased in size upon incubation and reached a stable maximum after approximately 45 min.
The isolated P450OX produces a reverse Type I substrate binding spectrum upon incubation with p-hydroxyphenylacetaldoxime. The extinction coefficient E420-390 corresponding to a complete transition from one spin state to the other is 130 mM^−1 cm^−1. In the substrate binding spectra obtained, the maximal amplitudes are approximately twice as large as theoretically calculated even when assuming a complete shift from a high spin to a low spin state. […] Alternatively, the P420 form of P450OX is able to bind the oxime and thus contributes to the size of the substrate binding spectrum formed. The latter possibility could explain why maximal amplitudes are only obtained after prolonged incubation.

[5] = target: T1, cytochrome P450OX; assay: reconstitution of cytochrome P450OX activity in lipid micelles; format: biochemical; design: from tissue; host or cells: microsomes of etiolated Sorghum bicolor seedlings; conditions: 10 mM, in place of NADPH
Text: as §1, §2, §3

[6] = target: T3, P450TYR (CYP79) (Sorghum bicolor, UniProt Q43135); conditions: upon in vitro reconstitution; cited from earlier work
T3 sequence (Q43135 1-558): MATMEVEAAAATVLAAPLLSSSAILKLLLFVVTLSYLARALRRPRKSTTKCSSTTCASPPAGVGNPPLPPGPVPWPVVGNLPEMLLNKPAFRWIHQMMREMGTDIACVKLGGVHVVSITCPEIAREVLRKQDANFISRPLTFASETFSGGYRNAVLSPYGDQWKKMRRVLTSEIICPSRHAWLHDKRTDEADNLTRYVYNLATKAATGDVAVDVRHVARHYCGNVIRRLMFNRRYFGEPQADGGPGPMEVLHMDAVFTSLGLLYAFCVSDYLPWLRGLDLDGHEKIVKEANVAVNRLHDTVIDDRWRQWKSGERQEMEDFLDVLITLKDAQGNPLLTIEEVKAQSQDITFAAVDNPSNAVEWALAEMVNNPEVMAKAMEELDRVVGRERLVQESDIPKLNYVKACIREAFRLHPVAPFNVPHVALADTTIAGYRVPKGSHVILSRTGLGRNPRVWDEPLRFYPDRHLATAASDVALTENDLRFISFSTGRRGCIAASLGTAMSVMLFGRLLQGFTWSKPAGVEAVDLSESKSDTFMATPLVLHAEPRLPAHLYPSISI

N[C@@H](Cc1ccc(O)cc1)C(=O)O [tyrosine]
Km [1]: 30 µM
Vmax for p-hydroxymandelonitrile production [1]: 145 nmoles mg protein^−1 h^−1

ON=CCc1ccccc1 [phenylacetaldoxime]
metabolism of the oxime as substrate of P450OX [2]: can metabolize

O[C@H]1[C@H](O)[C@@H](O)CN2CC[C@H](O)[C@H]12 [castanospermine]
inhibition of glucosidase activity [3]: efficiently inhibited

N#CCc1ccc(O)cc1 [p-hydroxyphenylacetonitrile]
Km [1]: 100 µM
Vmax for p-hydroxymandelonitrile production [1]: 50 nmoles mg protein^−1 h^−1
substrate binding spectrum [4]: No substrate binding spectrum was obtained

O=S([O-])S(=O)[O-].[Na+].[Na+] [Sodium dithionite, reference compound]
support of metabolism of p-hydroxyphenylacetaldoxime by P450OX [5]: does not support metabolism

ON=CCc1ccc(O)cc1 [p-hydroxyphenylacetaldoxime]
metabolism of the oxime as substrate of P450OX [2]: fully metabolized
Km [1]: 50 µM
Vmax for p-hydroxymandelonitrile production [1]: 400 nmoles mg protein^−1 h^−1
incubation time until the amplitude of the binding spectrum reached a stable maximum [4]: approximately 45 min
substrate binding spectrum [4]: reverse type I spectrum

B1: P450TYR: cytochrome P450 of Sorghum bicolor that converts tyrosine to p-hydroxyphenylacetaldehyd oxime (protein, UniProt Q43135 2-558, looked up)
Tyrosine N-monooxygenase: ATMEVEAAAATVLAAPLLSSSAILKLLLFVVTLSYLARALRRPRKSTTKCSSTTCASPPAGVGNPPLPPGPVPWPVVGNLPEMLLNKPAFRWIHQMMREMGTDIACVKLGGVHVVSITCPEIAREVLRKQDANFISRPLTFASETFSGGYRNAVLSPYGDQWKKMRRVLTSEIICPSRHAWLHDKRTDEADNLTRYVYNLATKAATGDVAVDVRHVARHYCGNVIRRLMFNRRYFGEPQADGGPGPMEVLHMDAVFTSLGLLYAFCVSDYLPWLRGLDLDGHEKIVKEANVAVNRLHDTVIDDRWRQWKSGERQEMEDFLDVLITLKDAQGNPLLTIEEVKAQSQDITFAAVDNPSNAVEWALAEMVNNPEVMAKAMEELDRVVGRERLVQESDIPKLNYVKACIREAFRLHPVAPFNVPHVALADTTIAGYRVPKGSHVILSRTGLGRNPRVWDEPLRFYPDRHLATAASDVALTENDLRFISFSTGRRGCIAASLGTAMSVMLFGRLLQGFTWSKPAGVEAVDLSESKSDTFMATPLVLHAEPRLPAHLYPSISI
turn-over number [6]: 230 min⁻¹
